From patent publication US20230277583A1, “ENTERAL CARBON MONOXIDE FOR THE PREVENTION AND TREATMENT OF OCULAR DISEASES” (Augusta University Research Institute, Inc., priority 2022, published 2023)

Legend:
[1] = low dose CO reaching <20% COHb saturation; cited from earlier work
[2] = cited from earlier work
[3] = CO concentration achievable in aqueous composition at various temperature and pressure; assay type: physicochemical
Description: For example, CO can be dissolved in an aqueous liquid under higher than ambient pressure. The use of pressure to dissolve the CO increases the achievable concentration of CO in solution. […] For example, lowering of the temperature below 2° C. and increasing the pressure above 10 ATM can achieve an even greater concentration of CO dissolved in the aqueous solution. […] Although raising the pressure above 10 ATM might not be commercially practicable, it is technologically feasible at this time.
The method of making a CO-containing liquid composition relies on the use of greater than atmospheric pressure (i.e., “high” pressure) to increase the amount of CO dissolved in the liquid composition. In some embodiments, at least 1.1 atmospheres (ATM) of pressure is used in the process of introducing CO into the liquid composition. Preferably, where high pressure is used, at least 1.2 ATM is used. In certain exemplary embodiments, 2 ATM, 3 ATM, or 5 ATM is used during introduction of CO into the liquid composition. It is contemplated that pressures above 5 ATM are also suitable, such as 6 ATM, 7 ATM, 8 ATM, and 10 ATM or higher. In accordance with the discussion concerning ranges set forth above, all specific values, and all possible ranges, falling within the atmospheric conditions discussed herein are contemplated. Furthermore, variations in the source of CO, the equipment used to introduce the CO into the liquid composition, the pressure of the CO being used (i.e., volume supplied per unit time), and the atmospheric pressures used will affect the amount of time required to achieve a suitable concentration of CO in the composition.
The method of making a CO-containing liquid composition preferably includes subjecting the composition to a low temperature during the step of exposing the liquid to CO. […] A low temperature is typically a temperature at or below 4° C., preferably at or below 2° C., such as 1° C., 0° C., −1° C., −2° C., −3° C., −4° C., −5° C., −6° C., −10° C., −12° C., −14° C., −16° C., −18° C., −20° C., or below. In embodiments where the composition is exposed to a low temperature, it is preferred that the CO-containing liquid composition be sealed to preclude loss of dissolved CO over time. Accordingly, in embodiments, the method of making a CO-containing liquid composition includes dispensing the liquid composition into a sealable container and sealing the container after an appropriate amount of CO has been dissolved in the liquid composition. Dispensing of the liquid can be performed before, during, or after dissolving CO into the liquid composition. Typically, sealing will be performed under low temperature to minimize loss of dissolved CO during the process of sealing. As discussed above, any number of sealable containers and caps are known in the art of bottling and canning of liquids, and any of these can be used within the context of the present disclosure. For the sake of clarity, in embodiments where both high pressure and low temperature are used, it is preferred that sealing be performed under both high pressure and low temperature, although the same pressure and temperature used for dissolving CO into the liquid need not be used. Further, it is to be understood that, once the CO-containing liquid is sealed in a container under CO gas, it is not necessary to maintain the sealed container at high pressure and low temperature, as the sealed container will not allow dissolved CO to escape from solution.

## [C-]#[O+] [CO, carbon monoxide]
[1]
  safety and tolerability: safe and tolerable
[2]
  half-life of the alpha-phase of CO in the human bloodstream: 4 to 6 h
[3]; 2° C., 1 ATM
  CO Concentration Achievable in Aqueous Composition: 40 mg/L water
  CO Concentration in Aqueous Solution: 40 mg/L water
[3]; 2° C., 2 ATM
  CO Concentration Achievable in Aqueous Composition: 80 mg/L water
  CO Concentration in Aqueous Solution: 80 mg/L water
[3]; 2° C., 3 ATM
  CO Concentration Achievable in Aqueous Composition: 120 mg/L water
  CO Concentration in Aqueous Solution: 120 mg/L water
[3]; 2° C., 5 ATM
  CO Concentration Achievable in Aqueous Composition: 200 mg/L water
  CO Concentration in Aqueous Solution: 200 mg/L water
[3]; 2° C., 10 ATM
  CO Concentration Achievable in Aqueous Composition: 400 mg/L water
  CO Concentration in Aqueous Solution: 400 mg/L water
[3]; 21° C., 1 ATM
  CO Concentration Achievable in Aqueous Composition: 25 mg/L water
